According to article PMC6271219, “Antiprotozoal Activity of Achillea ptarmica (Asteraceae) and Its Main Alkamide Constituents” (Molecules, 2014):
≈ marks a conversion by molar mass, not a printed value. Read-outs that look alike come from different tables or passages of the source. Values belong to the compound of their own block, whether it stands above or below them.

Columns and labels:
[1] = system: Trypanosoma brucei rhodesiense; test: In vitro antiprotozoal assay against T. brucei rhodesiense (Tbr); type: cell-based; conditions: for SI Tbr: ratio of cytotoxic (L6) over antiprotozoal IC50
Experimental: (§1) All fractions were analyzed by UHPLC/+ESI QTOF MSMS and representative samples chosen for re-evaluation of their antiprotozoal activity. At this stage, each of the chosen fractions was tested for percent growth inhibitory activity at two concentrations (see Table 2).
(§2) The assays and the IC50 determinations were performed essentially as described previously.

T. cruzi = test: In vitro antiprotozoal assay against T. cruzi (Tcr); type: cell-based; conditions: Trypanosoma cruzi
Experimental: as §1, §2

Leishmania donovani = test: In vitro antiprotozoal assay against Leishmania donovani (Ldo); type: cell-based
Experimental: as §1, §2

[2] = system: Plasmodium falciparum NF54 strain; test: In vitro antiplasmodial assay, P. falciparum NF54 strain; type: cell-based; conditions: for IC50: Plasmodium falciparum; for SI Pf: ratio of cytotoxic (L6) over antiprotozoal IC50, Pf NF54 strain
Experimental: as §1, §2

[3] = system: rat skeletal myoblasts (L6 cell line); test: Cytotoxicity against rat skeletal myoblasts (L6 cell line); type: cell-based
Experimental: as §2

[4] = system: Plasmodium falciparum K1 strain; test: In vitro antiplasmodial assay, P. falciparum K1 strain; type: cell-based; conditions: K1, read-out: IC50 Pf (value in brackets)
Experimental: Tests for antiprotozoal activities were carried out using established standard protocols at the Swiss Tropical and Public Health Institute (Swiss TPH, Basel, Switzerland). The assays and the IC50 determinations were performed essentially as described previously.

K1 strain of Pf [5] = system: K1 strain of Pf; parameters: method as in PMID 2236290; conditions: cited from earlier work
K1 strain of Pf [6] = system: K1 strain of Pf; parameters: method as in PMID 15234750; conditions: cited from earlier work
[7] = Trypanosoma brucei, RHODESIENSE, in vitro, means of two independent determinations ± deviation from mean, read-out: IC50 Tbr
[8] = Trypanosoma brucei, RHODESIENSE, in vitro, pure compounds, read-out: IC50 Tbr (value in brackets) (converted)
[9] = compared with A. ptarmica crude extract
[10] = in vitro, means of two independent determinations ± deviation from mean, read-out: IC50 Tcr
[11] = in vitro, pure compounds, read-out: IC50 Tcr (value in brackets) (converted)
[12] = in vitro, means of two independent determinations ± deviation from mean, read-out: IC50 Ldo
[13] = in vitro, pure compounds, read-out: IC50 Ldo (value in brackets) (converted)
[14] = NF54, NF54 strain, pure compounds, read-out: IC50 Pf (value in brackets) (converted)
[15] = cytotoxicity, L6 cell line, means of two independent determinations ± deviation from mean, read-out: IC50 Tox. L6
[16] = cytotoxicity, L6 cell line, pure compounds, read-out: IC50 Tox. L6 (value in brackets) (converted)
[17] = NF54, read-out: IC50 Pf (value in brackets)
[18] = L6, read-out: IC50 Tox. L6 (value in brackets)

Structure (SMILES): C/C=C\CC/C=C/C=C/C(=O)NCC(C)C [8,9-Z-Dehydropellitorine (2), (E,E,Z)-2,4,8-decatrienoic acid isobutylamide]
IC50 [1, 7]: 2 ± 0.06 µg/mL
IC50 [1, 8]: 9 µM
Anti-Tbr activity, fold lower in comparison with the crude extract [1, 9]: 3 fold
Selectivity index (Tbr), fold lower than that of the total extract ([1]; compared with A. ptarmica total extract): about 5 fold
IC50 ([1]; in vitro, pure compounds, read-out: IC50 Tbr (value in brackets) (converted)): 9.1 µM
SI Tbr [1]: 8.25
IC50 (T. cruzi; [10]): 14.2 ± 2.5 µg/mL
IC50 (T. cruzi; [11]): 64.3 µM
IC50 (Leishmania donovani; [12]): 5.01 ± 0.12 µg/mL
IC50 (Leishmania donovani; [13]): 22.7 µM
IC50 [2, 14]: 29.3 µM
SI Pf [2]: 2.55
IC50 [3, 15]: 16.5 ± 0.2 µg/mL
IC50 [3, 16]: 74.7 µM

Structure (SMILES): CCCC#CC#CCC/C=C/C=C/C(=O)NCC(C)C [Anacycline (6), (E,E)-2,4-tetradecadien-8,10-diynoic acid isobutylamide]
IC50 [1, 7]: 5.12 ± 0.95 µg/mL
IC50 [1, 8]: 18.9 µM
SI Tbr [1]: 9.5
IC50 (T. cruzi; read-out: IC50 Tcr): 42 ± 4.5 µg/mL
IC50 (T. cruzi; read-out: IC50 Tcr (value in brackets)): 155 µM
IC50 (Leishmania donovani; read-out: IC50 Ldo): > 100 µg/mL
IC50 (Leishmania donovani; read-out: IC50 Ldo (value in brackets)): > 369 µM
IC50 ([2]; NF54, read-out: IC50 Pf): 7.23 ± 0.4 µg/mL
IC50 [2, 17]: 26.7 µM
SI Pf [2]: 6.74
IC50 ([3]; L6, read-out: IC50 Tox. L6): 48.7 ± 1.1 µg/mL
IC50 [3, 18]: 18 µM

Structure (SMILES): O=C(Cn1ccnc1[N+](=O)[O-])NCc1ccccc1 [Benznidazole, reference compound]
IC50 (T. cruzi; [10]): 0.439 ± 0.094 µg/mL
IC50 (T. cruzi; [11]): 1.69 µM

IC50 [4]: 250 nM
IC50 [2, 17]: 0.009 µM
Structure (SMILES): CCN(CC)CCCC(C)Nc1ccnc2cc(Cl)ccc12 (centres unmarked) [Chloroquine, reference compound]

Structure (SMILES): Nc1nc(N)nc(Nc2ccc([As]3SCC(CO)S3)cc2)n1 (centres unmarked) [Melarsoprol, reference compound]
IC50 ([1]; Trypanosoma brucei, RHODESIENSE, read-out: IC50 Tbr): 0.003 ± 0.001 µg/mL
IC50 ([1]; Trypanosoma brucei, RHODESIENSE, read-out: IC50 Tbr (value in brackets)): 0.008 µM

Structure (SMILES): CCCCCC=CC=CC(=O)NCC(C)C [N-isobutyldeca-2,4-diene]
IC50 against Pf (K1 strain of Pf [5]): 5.4 µg/mL (≈ 24.2 µM)

IC50 [1, 7]: 5.35 ± 0.54 µg/mL
IC50 [1, 8]: 24 µM
IC50 (T. cruzi; [10]): 8.45 ± 1.08 µg/mL
IC50 (T. cruzi; [11]): 37.9 µM
IC50 (Leishmania donovani; [12]): 5.96 ± 0.16 µg/mL
IC50 (Leishmania donovani; [13]): 26.7 µM
IC50 Pf ([2]; NF54 strain, means of two independent determinations ± deviation from mean): 3.3 µg/mL (≈ 14.8 µM)
IC50 ([2]; NF54, NF54 strain, means of two independent determinations ± deviation from mean, read-out: IC50 Pf): 3.26 µg/mL
IC50 [2, 14]: 14.6 µM
Structure (SMILES): CCCCC/C=C/C=C/C(=O)NCC(C)C [Pellitorine (1), (E,E)-2,4-decadienoic acid isobutylamide]
SI Tbr [1]: 8.41
Antiplasmodial activity, fold higher than that of the crude extract [2, 9]: about 2 fold
SI Pf [2]: 13.85
IC50 [3, 15]: 45.5 ± 9.1 µg/mL
IC50 [3, 16]: 202 µM
Concentration up to which reported inactive against Pf (K1 strain of Pf [6]): > 20 µg/mL

Structure (SMILES): COc1cc([C@@H]2c3cc4c(cc3[C@H](O)[C@H]3COC(=O)[C@H]23)OCO4)cc(OC)c1OC [Podophyllotoxin, reference compound]
IC50 ([3]; L6, read-out: IC50 Tox. L6): 0.008 ± 0.001 µg/mL
IC50 [3, 18]: 0.019 µM
